PubChem BioAssay (NCI)
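Step 1: Grow cells in 96-well plates. Step 2: Expose to compound for 48 hours at 5 concentrations. Step 3: Interpolate endpoints linearly; if unreached, use highest concentration. TGI denotes the concentration required for complete inhibition of growth.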

Legend:
Test in all cases: inhibition of tumour cell growth, NCI panel, 48 h
786-0 renal = test system: 786-0 renal
A498 renal = test system: A498 renal
A549 NSCLC = test system: A549 NSCLC
ACHN renal = test system: ACHN renal
BT-549 breast = test system: BT-549 breast
CCRF-CEM leukemia = test system: CCRF-CEM leukemia
DU-145 prostate = test system: DU-145 prostate
EKVX NSCLC = test system: EKVX NSCLC
HCC-2998 colon = test system: HCC-2998 colon
HCT-116 colon = test system: HCT-116 colon
HCT-15 colon = test system: HCT-15 colon
HL-60(TB) leukemia = test system: HL-60(TB) leukemia
HOP-62 NSCLC = test system: HOP-62 NSCLC
HOP-92 NSCLC = test system: HOP-92 NSCLC
HS 578T breast = test system: HS 578T breast
HT29 colon = test system: HT29 colon
IGROV1 ovarian = test system: IGROV1 ovarian
K-562 leukemia = test system: K-562 leukemia
KM12 colon = test system: KM12 colon
LOX IMVI melanoma = test system: LOX IMVI melanoma
M14 melanoma = test system: M14 melanoma
MALME-3M melanoma = test system: MALME-3M melanoma
MCF7 breast = test system: MCF7 breast
MDA-MB-231 breast = test system: MDA-MB-231 breast
MDA-MB-435 = test system: MDA-MB-435
MDA-N = test system: MDA-N
MOLT-4 leukemia = test system: MOLT-4 leukemia
NCI-H226 lung = test system: NCI-H226 lung
NCI-H23 lung = test system: NCI-H23 lung
NCI-H460 lung = test system: NCI-H460 lung
NCI/ADR-RES ovarian = test system: NCI/ADR-RES ovarian
OVCAR-3 ovarian = test system: OVCAR-3 ovarian
OVCAR-4 ovarian = test system: OVCAR-4 ovarian
OVCAR-5 ovarian = test system: OVCAR-5 ovarian
OVCAR-8 ovarian = test system: OVCAR-8 ovarian
PC-3 prostate = test system: PC-3 prostate
RPMI-8226 leukemia = test system: RPMI-8226 leukemia
RXF 393 renal = test system: RXF 393 renal
SF-268 CNS = test system: SF-268 CNS
SF-295 CNS = test system: SF-295 CNS
SF-539 CNS = test system: SF-539 CNS
SK-MEL-28 melanoma = test system: SK-MEL-28 melanoma
SK-MEL-5 melanoma = test system: SK-MEL-5 melanoma
SK-OV-3 ovarian = test system: SK-OV-3 ovarian
SN12C renal = test system: SN12C renal
SNB-19 CNS = test system: SNB-19 CNS
SNB-75 CNS = test system: SNB-75 CNS
SR leukemia = test system: SR leukemia
SW-620 colon = test system: SW-620 colon
T-47D breast = test system: T-47D breast
TK-10 renal = test system: TK-10 renal
U251 CNS = test system: U251 CNS
UACC-257 melanoma = test system: UACC-257 melanoma
UACC-62 melanoma = test system: UACC-62 melanoma
UO-31 renal = test system: UO-31 renal
COLO 205 colon = test system: COLO 205 colon
SK-MEL-2 melanoma = test system: SK-MEL-2 melanoma

In the case of `N#CCOc1ccc(/C=C/C(=O)c2ccc(Cl)cc2)cc1`, the TGI (786-0 renal) is reported as 48.1 µM, the TGI (A498 renal) is reported as 49.5 µM and the TGI (A549 NSCLC) is reported as > 100 µM. The TGI (ACHN renal) was > 100 µM, the TGI (BT-549 breast) was 11.7 µM and the TGI (CCRF-CEM leukemia) was > 100 µM. The TGI (DU-145 prostate) was > 100 µM, the TGI (EKVX NSCLC) was > 100 µM and the TGI (HCC-2998 colon) was 98.8 µM. The TGI (HCT-116 colon) was 27.8 µM, the TGI (HCT-15 colon) was > 100 µM and the TGI (HL-60(TB) leukemia) was > 100 µM. It also gave a TGI (HOP-62 NSCLC) of 57.5 µM, a TGI (HOP-92 NSCLC) of 81.4 µM and a TGI (HS 578T breast) of 50.9 µM. For the same molecule, the TGI (HT29 colon) was > 100 µM, the TGI (IGROV1 ovarian) was 60.4 µM and the TGI (K-562 leukemia) was > 100 µM. The TGI (KM12 colon) was 73.5 µM, the TGI (LOX IMVI melanoma) was 37.5 µM and the TGI (M14 melanoma) was > 100 µM. For the same molecule, the TGI (MALME-3M melanoma) was 58.4 µM, the TGI (MCF7 breast) was 54.1 µM and the TGI (MDA-MB-231 breast) was 85.5 µM. The TGI (MDA-MB-435) was > 100 µM, the TGI (MDA-N) was > 100 µM and the TGI (MOLT-4 leukemia) was > 100 µM. The TGI (NCI-H226 lung) was > 100 µM, the TGI (NCI-H23 lung) was 76.3 µM and the TGI (NCI-H460 lung) was 64.2 µM. For the same molecule, the TGI (NCI/ADR-RES ovarian) was 48.5 µM, the TGI (OVCAR-3 ovarian) was > 100 µM and the TGI (OVCAR-4 ovarian) was > 100 µM. The TGI (OVCAR-5 ovarian) was > 100 µM, the TGI (OVCAR-8 ovarian) was 93.6 µM and the TGI (PC-3 prostate) was > 100 µM. The TGI (RPMI-8226 leukemia) was > 100 µM, the TGI (RXF 393 renal) was 38.5 µM and the TGI (SF-268 CNS) was > 100 µM. The TGI (SF-295 CNS) was 53.9 µM, the TGI (SF-539 CNS) was 36.4 µM and the TGI (SK-MEL-28 melanoma) was > 100 µM. For the same molecule, the TGI (SK-MEL-5 melanoma) was 43.6 µM, the TGI (SK-OV-3 ovarian) was 37.3 µM and the TGI (SN12C renal) was > 100 µM. For the same molecule, the TGI (SNB-19 CNS) was 61.7 µM, the TGI (SNB-75 CNS) was 37.2 µM and the TGI (SR leukemia) was > 100 µM. For the same molecule, the TGI (SW-620 colon) was 70.4 µM, the TGI (T-47D breast) was 61.2 µM and the TGI (TK-10 renal) was 74.5 µM. For the same molecule, the TGI (U251 CNS) was 99.3 µM, the TGI (UACC-257 melanoma) was > 100 µM and the TGI (UACC-62 melanoma) was 41.6 µM. For the same molecule, the TGI (UO-31 renal) was 88.6 µM.

For `Cc1ccc(N=C2S/C(=C3/CCC=C3N3CCOCC3)N(c3ccc(Cl)cc3)C2=Nc2ccc(C)cc2)cc1`, the TGI (786-0 renal) was > 100 µM, the TGI (A498 renal) was > 100 µM and the TGI (A549 NSCLC) was > 100 µM. The TGI (ACHN renal) was > 100 µM, the TGI (BT-549 breast) was > 100 µM and the TGI (COLO 205 colon) was > 100 µM. The TGI (EKVX NSCLC) was > 100 µM, the TGI (HCC-2998 colon) was > 100 µM and the TGI (HCT-116 colon) was > 100 µM. For the same molecule, the TGI (HCT-15 colon) was > 100 µM, the TGI (HL-60(TB) leukemia) was > 100 µM and the TGI (HOP-62 NSCLC) was > 100 µM. The TGI (HOP-92 NSCLC) was > 100 µM, the TGI (HS 578T breast) was > 100 µM and the TGI (HT29 colon) was > 100 µM. The TGI (IGROV1 ovarian) was > 100 µM, the TGI (K-562 leukemia) was > 100 µM and the TGI (KM12 colon) was > 100 µM. For the same molecule, the TGI (M14 melanoma) was > 100 µM, the TGI (MALME-3M melanoma) was > 100 µM and the TGI (MCF7 breast) was > 100 µM. For the same molecule, the TGI (MDA-MB-231 breast) was > 100 µM, the TGI (MDA-N) was > 100 µM and the TGI (MOLT-4 leukemia) was > 100 µM. For the same molecule, the TGI (NCI-H226 lung) was > 100 µM, the TGI (NCI-H23 lung) was > 100 µM and the TGI (NCI-H460 lung) was > 100 µM. For the same molecule, the TGI (OVCAR-5 ovarian) was > 100 µM, the TGI (OVCAR-8 ovarian) was > 100 µM and the TGI (PC-3 prostate) was > 100 µM. The TGI (RPMI-8226 leukemia) was > 100 µM, the TGI (RXF 393 renal) was > 100 µM and the TGI (SK-MEL-2 melanoma) was > 100 µM. For the same molecule, the TGI (SK-MEL-28 melanoma) was > 100 µM, the TGI (SK-MEL-5 melanoma) was > 100 µM and the TGI (SN12C renal) was > 100 µM. For the same molecule, the TGI (SNB-19 CNS) was > 100 µM, the TGI (SNB-75 CNS) was > 100 µM and the TGI (SR leukemia) was > 100 µM. The TGI (SW-620 colon) was > 100 µM, the TGI (T-47D breast) was > 100 µM and the TGI (TK-10 renal) was > 100 µM. The TGI (U251 CNS) was > 100 µM, the TGI (UACC-257 melanoma) was > 100 µM and the TGI (UACC-62 melanoma) was > 100 µM. The TGI (UO-31 renal) was > 100 µM.
